Each structure is given as a SMILES string. Bounds are passed on as bounds.

A word on the IC50: it is the concentration that gives 50% inhibition.

One test deals with MDA-MB-231. Description: Cell growth inhibition, CellTiter-Glo Luminescent Cell Viability Assay, MDA-MB-231. The class given is cell-based. Particulars: Homo sapiens, MDA-MB-231, 96 h, MDA-MB-231 cells, 4 days incubation. Here is the method:
(§1) Cell growth inhibitory activity of representative Compounds of the Disclosure was determined in various cell lines using CellTiter-Glo® Luminescent Cell Viability Assay. Cells were seeded in 384-well white opaque cell culture plates at a density of 2,000 cells/well with serially diluted compounds and incubated at 37° C. in an atmosphere of 95% air and 5% CO2 for 4 days. Cell viability was determined using the CellTiter-Glo® Luminescent Cell Viability Assay Kit (Promega, Madison, Wis.) according to the manufacture's instruction. Briefly, a volume of CellTiter-Glo® Reagent equal to the volume of cell culture medium was added to each well, and then the plates were incubated at room temperature for 10-20 minutes. The luminescent signal was measured using a Tecan Infinite M1000 multimode microplate reader (Tecan, Morrisville, N.C.). The half maximal inhibitory concentration (IC50) was calculated using the GraphPad Prism 5 software (GraphPad Software, La Jolla, Calif.).
For orientation: In ATP-based viability assays light output follows the ATP content of the culture.

The next test deals with MOLM-13. Description: Cell growth inhibition, CellTiter-Glo Luminescent Cell Viability Assay, MOLM-13. The test is classed as cell-based. To be noted: Homo sapiens, MOLM-13, 96 h, MOLM-13 cells, 4 days incubation. Here is the method:
as §1

With `Cc1c(C#Cc2cnn(CCN3CCN(c4cccc5c4C(=O)N(C4CCC(=O)NC4=O)C5=O)CC3)c2)sc2c1C(c1ccc(Cl)cc1)=N[C@@H](C)c1nnc(C)n1-2` (stereo partly drawn) [compound 183, 4-(4-(2-(4-(((S)-4-(4-chlorophenyl)-3,6,9-trimethyl-6H-thieno[3,2-f][1,2,4]triazolo[4,3-a][1,4]diazepin-2-yl)ethynyl)-1H-pyrazol-1-yl)ethyl)piperazin-1-yl)-2-(2,6-dioxopiperidin-3-yl)isoindoline-1,3-dione], the concentration for half-maximal inhibition (IC50) amounted to 0.3 nM in the test on MDA-MB-231 and 0.8 nM with MOLM-13.

For `Cc1c(C#Cc2cnn(C[C@H]3CC[C@@H](Nc4cccc5c4CN(C4CCC(=O)NC4=O)C5=O)CC3)c2)sc2c1C(c1ccc(Cl)cc1)=N[C@@H](C)c1nnc(C)n1-2` (stereo partly drawn) [compound 172, 3-(4-(((1R,4s)-4-((4-(((S)-4-(4-chlorophenyl)-3,6,9-trimethyl-6H-thieno[3,2-f][1,2,4]triazolo[4,3-a][1,4]diazepin-2-yl)ethynyl)-1H-pyrazol-1-yl)methyl)cyclohexyl)amino)-1-oxoisoindolin-2-yl)piperidine-2,6-dione], the IC50 with MDA-MB-231 came to 4.4 nM; in the test with MOLM-13, 2.3 nM.

Consider `Cc1ncsc1-c1ccc([C@H](C)NC(=O)[C@@H]2C[C@@H](O)CN2C(=O)[C@@H](NC(=O)COCCOCCOCCOCCn2cc(C#Cc3sc4c(c3C)C(c3ccc(Cl)cc3)=N[C@@H](C)c3nnc(C)n3-4)cn2)C(C)(C)C)cc1` [compound 198, (2S,4R)-1-((S)-2-(tert-butyl)-17-(4-(((S)-4-(4-chlorophenyl)-3,6,9-trimethyl-6H-thieno[3,2-f][1,2,4]triazolo[4,3-a][1,4]diazepin-2-yl)ethynyl)-1H-pyrazol-1-yl)-4-oxo-6,9,12,15-tetraoxa-3-azaheptadecanoyl)-4-hydroxy-N-((S)-1-(4-(4-methylthiazol-5-yl)phenyl)ethyl)pyrrolidine-2-carboxamide], for which the half-maximal inhibitory concentration (IC50) is 1.5 nM in the test with MDA-MB-231 and 0.24 ± 0.06 nM in the test on MOLM-13.

Regarding `Cc1c(C#Cc2cnn(CCCCOc3cccc4c3CN(C3CCC(=O)NC3=O)C4=O)c2)sc2c1C(c1ccc(Cl)cc1)=NCc1nnc(C)n1-2` (centres unmarked) [compound 146, 3-(4-(4-(4-((4-(4-chlorophenyl)-3,9-dimethyl-6H-thieno[3,2-f][1,2,4]triazolo[4,3-a][1,4]diazepin-2-yl)ethynyl)-1H-pyrazol-1-yl)butoxy)-1-oxoisoindolin-2-yl)piperidine-2,6-dione], the IC50 with MDA-MB-231 turned out to be 1.2 nM; with MOLM-13, 1 nM.

Turning to `Cc1c(C#Cc2cnn(CCOCCOCCOCC#Cc3cccc4c3CN(C3CCC(=O)NC3=O)C4=O)c2)sc2c1C(c1ccc(Cl)cc1)=N[C@@H](CC(=O)N1CCN(C)CC1)c1nnc(C)n1-2` (stereo partly drawn) [compound 197, 3-(4-(3-(2-(2-(2-(4-(((S)-4-(4-chlorophenyl)-3,9-dimethyl-6-(2-(4-methylpiperazin-1-yl)-2-oxoethyl)-6H-thieno[3,2-f][1,2,4]triazolo[4,3-a][1,4]diazepin-2-yl)ethynyl)-1H-pyrazol-1-yl)ethoxy)ethoxy)ethoxy)prop-1-yn-1-yl)-1-oxoisoindolin-2-yl)piperidine-2,6-dione], the half-inhibitory concentration (IC50) worked out at 2.5 nM with MDA-MB-231 and 1.1 nM in the test with MOLM-13.

For `Cc1c(C#Cc2cnn(CCOCCOCCOCC#Cc3cccc4c3CN(C3CCC(=O)NC3=O)C4=O)c2)sc2c1C(c1ccc(Cl)cc1)=N[C@@H](CC(=O)OC(C)(C)C)c1nnc(C)n1-2` (stereo partly drawn) [compound 194, tert-butyl 2-((6S)-4-(4-chlorophenyl)-2-((1-(2-(2-(2-((3-(2-(2,6-dioxopiperidin-3-yl)-1-oxoisoindolin-4-yl)prop-2-yn-1-yl)oxy)ethoxy)ethoxy)ethyl)-1H-pyrazol-4-yl)ethynyl)-3,9-dimethyl-6H-thieno[3,2-f][1,2,4]triazolo[4,3-a][1,4]diazepin-6-yl)acetate], the figures for the 50% inhibitory concentration (IC50) in the test with MDA-MB-231 and in the test with MOLM-13 were 0.7 nM and 0.8 nM, respectively.

As for `Cc1c(C#Cc2cnn(CCCCNc3ccc4c(c3)CN(C3CCC(=O)NC3=O)C4=O)c2)sc2c1C(c1ccc(Cl)cc1)=N[C@@H](C)c1nnc(C)n1-2` (stereo partly drawn) [compound 184, 3-(5-((4-(4-(((S)-4-(4-chlorophenyl)-3,6,9-trimethyl-6H-thieno[3,2-f][1,2,4]triazolo[4,3-a][1,4]diazepin-2-yl)ethynyl)-1H-pyrazol-1-yl)butyl)amino)-1-oxoisoindolin-2-yl)piperidine-2,6-dione], the results for the 50% inhibitory concentration (IC50) in the test on MDA-MB-231 and in the test on MOLM-13 were 0.1 nM and 0.5 nM, respectively.

In the case of `Cc1c(C#Cc2cnn(CCCC#Cc3ccc4c(c3)CN(C3CCC(=O)NC3=O)C4=O)c2)sc2c1C(c1ccc(Cl)cc1)=N[C@@H](C)c1nnc(C)n1-2` (stereo partly drawn) [compound 179, 3-(5-(5-(4-(((S)-4-(4-chlorophenyl)-3,6,9-trimethyl-6H-thieno[3,2-f][1,2,4]triazolo[4,3-a][1,4]diazepin-2-yl)ethynyl)-1H-pyrazol-1-yl)pent-1-yn-1-yl)-1-oxoisoindolin-2-yl)piperidine-2,6-dione], the IC50 turned out to be 0.2 nM in the test with MDA-MB-231 and 0.9 nM with MOLM-13.

On to `Cc1c(C#Cc2cnn(C[C@H]3C[C@H](Nc4cccc5c4CN(C4CCC(=O)NC4=O)C5=O)C3)c2)sc2c1C(c1ccc(Cl)cc1)=N[C@@H](C)c1nnc(C)n1-2` (stereo partly drawn) [compound 173, 3-(4-(((1S,3r)-3-((4-(((S)-4-(4-chlorophenyl)-3,6,9-trimethyl-6H-thieno[3,2-f][1,2,4]triazolo[4,3-a][1,4]diazepin-2-yl)ethynyl)-1H-pyrazol-1-yl)methyl)cyclobutyl)amino)-1-oxoisoindolin-2-yl)piperidine-2,6-dione], for which the concentration for half-maximal inhibition (IC50) with MDA-MB-231 amounted to 4.6 nM; in the test on MOLM-13, 3.3 nM.

In the case of `Cc1c(C#Cc2cnn(CCCn3cnc(COc4cccc5c4C(=O)N(C4CCC(=O)NC4=O)C5=O)c3)c2)sc2c1C(c1ccc(Cl)cc1)=NCc1nnc(C)n1-2` (centres unmarked) [compound 155, 4-((1-(3-(4-((4-(4-chlorophenyl)-3,9-dimethyl-6H-thieno[3,2-f][1,2,4]triazolo[4,3-a][1,4]diazepin-2-yl)ethynyl)-1H-pyrazol-1-yl)propyl)-1H-imidazol-4-yl)methoxy)-2-(2,6-dioxopiperidin-3-yl)isoindoline-1,3-dione], the half-maximal inhibitory concentration (IC50) with MDA-MB-231 and in the test with MOLM-13 was above 100 nM in each case.

In the case of `Cc1c(C#Cc2cnn(CCOCCOCCOCC#Cc3cccc4c3CN(C3CCC(=O)NC3=O)C4=O)c2)sc2c1C(c1ccc(Cl)cc1)=N[C@@H](CC(N)=O)c1nnc(C)n1-2` (stereo partly drawn) [compound 195, 2-((6S)-4-(4-chlorophenyl)-2-((1-(2-(2-(2-((3-(2-(2,6-dioxopiperidin-3-yl)-1-oxoisoindolin-4-yl)prop-2-yn-1-yl)oxy)ethoxy)ethoxy)ethyl)-1H-pyrazol-4-yl)ethynyl)-3,9-dimethyl-6H-thieno[3,2-f][1,2,4]triazolo[4,3-a][1,4]diazepin-6-yl)acetamide], the IC50 with MDA-MB-231 was found to be 5.4 nM; with MOLM-13, 2.4 nM.

As for `Cc1ncsc1-c1ccc([C@H](C)NC(=O)[C@@H]2C[C@@H](O)CN2C(=O)[C@@H](NC(=O)COCCOCCn2cc(C#Cc3sc4c(c3C)C(c3ccc(Cl)cc3)=N[C@@H](C)c3nnc(C)n3-4)cn2)C(C)(C)C)cc1` [compound 201, (2S,4R)-1-((S)-2-(2-(2-(2-(4-(((S)-4-(4-chlorophenyl)-3,6,9-trimethyl-6H-thieno[3,2-f][1,2,4]triazolo[4,3-a][1,4]diazepin-2-yl)ethynyl)-1H-pyrazol-1-yl)ethoxy)ethoxy)acetamido)-3,3-dimethylbutanoyl)-4-hydroxy-N-((S)-1-(4-(4-methylthiazol-5-yl)phenyl)ethyl)pyrrolidine-2-carboxamide], the half-maximal inhibitory concentration (IC50) with MDA-MB-231 was 24.9 nM; in the test on MOLM-13, 2.1 ± 0.32 nM.

Take `Cc1c(C#Cc2cnn(CCOCCOCCOCC#Cc3cccc4c3CN(C3CCC(=O)NC3=O)C4=O)c2)sc2c1C(c1ccc(Cl)cc1)=N[C@@H](C)c1nnc(C)n1-2` (some centres unmarked) [compound 196]: the half-inhibitory concentration (IC50) in the test with MDA-MB-231 stood at 0.4 nM; with MOLM-13, 0.2 nM.

`Cc1c(C#Cc2cnn(CCCCN3CCC(Nc4cccc5c4CN(C4CCC(=O)NC4=O)C5=O)CC3)c2)sc2c1C(c1ccc(Cl)cc1)=NCc1nnc(C)n1-2` (centres unmarked) [compound 149, 3-(4-((1-(4-(4-((4-(4-chlorophenyl)-3,9-dimethyl-6H-thieno[3,2-f][1,2,4]triazolo[4,3-a][1,4]diazepin-2-yl)ethynyl)-1H-pyrazol-1-yl)butyl)piperidin-4-yl)amino)-1-oxoisoindolin-2-yl)piperidine-2,6-dione]: the half-inhibitory concentration (IC50) in the test with MDA-MB-231 stood at 0.67 nM; in the test with MOLM-13, 0.42 nM.

In the case of `Cc1c(C#Cc2ccc(CCC#Cc3cccc4c3CN(C3CCC(=O)NC3=O)C4=O)cn2)sc2c1C(c1ccc(Cl)cc1)=N[C@@H](C)c1nnc(C)n1-2` (stereo partly drawn) [compound 182, 3-(4-(4-(6-(((S)-4-(4-chlorophenyl)-3,6,9-trimethyl-6H-thieno[3,2-f][1,2,4]triazolo[4,3-a][1,4]diazepin-2-yl)ethynyl)pyridin-3-yl)but-1-yn-1-yl)-1-oxoisoindolin-2-yl)piperidine-2,6-dione], the IC50 in the test on MDA-MB-231 was determined as 1.7 nM; in the test on MOLM-13, 2.8 nM.

For the compound `Cc1c(C#Cc2cnn(CCCN3CCC(Nc4cccc5c4CN(C4CCC(=O)NC4=O)C5=O)CC3)c2)sc2c1C(c1ccc(Cl)cc1)=NCc1nnc(C)n1-2` (centres unmarked) [compound 148, 3-(4-((1-(3-(4-((4-(4-chlorophenyl)-3,9-dimethyl-6H-thieno[3,2-f][1,2,4]triazolo[4,3-a][1,4]diazepin-2-yl)ethynyl)-1H-pyrazol-1-yl)propyl)piperidin-4-yl)amino)-1-oxoisoindolin-2-yl)piperidine-2,6-dione], the IC50 is 0.4 nM in the test on MDA-MB-231 and 0.24 nM in the test on MOLM-13.

The record behind these values is patent US10975093B2, “Fused 1,4-diazepines as BET protein degraders” (THE REGENTS OF THE UNIVERSITY OF MICHIGAN, priority 2016, dated 2021).
